In ChEMBL document CHEMBL3885881, “DrugMatrix”:

Organism: Rattus norvegicus
Assay: DrugMatrix - Regimen: Daily Repeat
Format: toxicity, organism-based, Sprague-Dawley
Set-up: regimen Daily Repeat, gender Male, age 6-8 weeks
Settings: in vivo, route none, vehicle 100 % UNTREATED; for BASOPHIL / ERYTHROCYTE COUNT / HEMATOCRIT / HEMOGLOBIN / LEUKOCYTE COUNT / LYMPHOCYTE / MEAN CORPUSCULAR HEMOGLOBIN / MEAN CORPUSCULAR HEMOGLOBIN CONCENTRATION / MONOCYTE / NEUTROPHIL / NUCLEATED RED BLOOD CELLS / PLATELET COUNT / ABSOLUTE BASOPHIL / ABSOLUTE EOSINOPHIL / ABSOLUTE LYMPHOCYTE / ABSOLUTE MONOCYTE / ABSOLUTE SEGMENTED NEUTROPHIL / EOSINOPHIL / MEAN CORPUSCULAR VOLUME: tissue Blood
[1] = 60 mg/kg, 120 h, dose level M1, time 5 day
[2] = 60 mg/kg, 120 h, tissue Plasma, dose level M1, time 5 day
[3] = 60 mg/kg, […], dose level M1, time 14 day
[4] = 60 mg/kg, […], tissue Plasma, dose level M1, time 14 day
[5] = 75 mg/kg, 120 h, dose level High, time 5 day
[6] = 75 mg/kg, 120 h, tissue Plasma, dose level High, time 5 day
[7] = 75 mg/kg, […], dose level High, time 14 day
[8] = 75 mg/kg, […], tissue Plasma, dose level High, time 14 day

For Diet_Restriction, the BASOPHIL [1] was 0%, the “ERYTHROCYTE COUNT” value [1] was 5.22 x10E6/uL and the HEMATOCRIT [1] was 32.2%. The HEMOGLOBIN [1] was 11.93 G/DL, the “LEUKOCYTE COUNT” value [1] was 4.3 x10E3/uL and the LYMPHOCYTE [1] was 87.33%. The “MEAN CORPUSCULAR HEMOGLOBIN” value [1] was 22.9 pg, the “MEAN CORPUSCULAR HEMOGLOBIN CONCENTRATION” value [1] was 37.1 G/DL and the MONOCYTE [1] was 0.67%. The NEUTROPHIL [1] was 10.67%, the “NUCLEATED RED BLOOD CELLS” value [1] was 0 /100WBC and the “PLATELET COUNT” value [1] was 765.33 x10E3/uL. For the same substance, the “ALANINE AMINOTRANSFERASE” value [2] was 32.33 u/L, the ALBUMIN [2] was 4.3 G/DL and the “ALKALINE PHOSPHATASE” value [2] was 267.33 u/L. For the same substance, the “ASPARTATE AMINOTRANSFERASE” value [2] was 64.33 u/L, the “BLOOD UREA NITROGEN” value [2] was 6.33 mg/dL and the “CARBON DIOXIDE” value [2] was 31.33 mmol/L. For the same substance, the CHOLESTEROL [2] was 52 mg/dL, the “CREATINE PHOSPHOKINASE” value [2] was 263 u/L and the CREATININE [2] was 0.14 mg/dL. The GLUCOSE [2] was 137.33 mg/dL, the “LACTATE DEHYDROGENASE” value [2] was 96 u/L and the PHOSPHORUS [2] was 10.27 mg/dL. The POTASSIUM [2] was 5.6 MEQ/L, the “TOTAL BILIRUBIN” value [2] was 0.1 mg/dL and the “TOTAL PROTEIN” value [2] was 5.93 G/DL. The “ABSOLUTE BASOPHIL” value [3] was 0 CELLS/uL, the “ABSOLUTE EOSINOPHIL” value [3] was 64 CELLS/uL and the “ABSOLUTE LYMPHOCYTE” value [3] was 14236 CELLS/uL. For the same substance, the “ABSOLUTE MONOCYTE” value [3] was 39.33 CELLS/uL, the “ABSOLUTE SEGMENTED NEUTROPHIL” value [3] was 894 CELLS/uL and the BASOPHIL [3] was 0%. For the same substance, the EOSINOPHIL [3] was 0.33%, the “ERYTHROCYTE COUNT” value [3] was 6.6 x10E6/uL and the HEMATOCRIT [3] was 37.43%. The “LEUKOCYTE COUNT” value [3] was 15.23 x10E3/uL, the LYMPHOCYTE [3] was 92.67% and the “MEAN CORPUSCULAR HEMOGLOBIN” value [3] was 21.37 pg. The “MEAN CORPUSCULAR HEMOGLOBIN CONCENTRATION” value [3] was 37.67 G/DL, the “MEAN CORPUSCULAR VOLUME” value [3] was 56.73 fL and the MONOCYTE [3] was 0.33%. For the same substance, the NEUTROPHIL [3] was 6.67%, the “NUCLEATED RED BLOOD CELLS” value [3] was 0 /100WBC and the “PLATELET COUNT” value [3] was 800.67 x10E3/uL. The “ALANINE AMINOTRANSFERASE” value [4] was 47 u/L, the ALBUMIN [4] was 4.4 G/DL and the “ALKALINE PHOSPHATASE” value [4] was 256 u/L. The “ASPARTATE AMINOTRANSFERASE” value [4] was 114.33 u/L, the “BLOOD UREA NITROGEN” value [4] was 15 mg/dL and the “CARBON DIOXIDE” value [4] was 25 mmol/L. For the same substance, the CHOLESTEROL [4] was 65 mg/dL, the “CREATINE PHOSPHOKINASE” value [4] was 1426.33 u/L and the CREATININE [4] was 0.23 mg/dL. The GLUCOSE [4] was 165.33 mg/dL, the “LACTATE DEHYDROGENASE” value [4] was 131.33 u/L and the LIPASE [4] was 12 u/L. For the same substance, the PHOSPHORUS [4] was 11.63 mg/dL, the POTASSIUM [4] was 5.69 MEQ/L and the “TOTAL BILIRUBIN” value [4] was 0.17 mg/dL. For the same substance, the “TOTAL PROTEIN” value [4] was 6.17 G/DL, the “ABSOLUTE BASOPHIL” value [5] was 0 CELLS/uL and the “ABSOLUTE EOSINOPHIL” value [5] was 35.33 CELLS/uL. The “ABSOLUTE LYMPHOCYTE” value [5] was 3939.33 CELLS/uL, the “ABSOLUTE MONOCYTE” value [5] was 67.67 CELLS/uL and the “ABSOLUTE SEGMENTED NEUTROPHIL” value [5] was 957.67 CELLS/uL. The BASOPHIL [5] was 0%, the EOSINOPHIL [5] was 0.67% and the “ERYTHROCYTE COUNT” value [5] was 5.54 x10E6/uL. For the same substance, the HEMATOCRIT [5] was 33.63%, the HEMOGLOBIN [5] was 12.8 G/DL and the “LEUKOCYTE COUNT” value [5] was 5 x10E3/uL. For the same substance, the LYMPHOCYTE [5] was 79%, the “MEAN CORPUSCULAR HEMOGLOBIN” value [5] was 23.13 pg and the “MEAN CORPUSCULAR HEMOGLOBIN CONCENTRATION” value [5] was 38.07 G/DL. For the same substance, the NEUTROPHIL [5] was 19%, the “NUCLEATED RED BLOOD CELLS” value [5] was 0 /100WBC and the “PLATELET COUNT” value [5] was 1074.67 x10E3/uL. The “ALANINE AMINOTRANSFERASE” value [6] was 49.33 u/L, the ALBUMIN [6] was 4.3 G/DL and the “ALKALINE PHOSPHATASE” value [6] was 317.33 u/L. For the same substance, the “ASPARTATE AMINOTRANSFERASE” value [6] was 72 u/L, the “BLOOD UREA NITROGEN” value [6] was 9.33 mg/dL and the “CARBON DIOXIDE” value [6] was 35 mmol/L. For the same substance, the CHOLESTEROL [6] was 65.67 mg/dL, the “CREATINE PHOSPHOKINASE” value [6] was 288.33 u/L and the CREATININE [6] was 0.15 mg/dL. The GLUCOSE [6] was 136.33 mg/dL, the “LACTATE DEHYDROGENASE” value [6] was 95.67 u/L and the PHOSPHORUS [6] was 11.33 mg/dL. For the same substance, the POTASSIUM [6] was 6.01 MEQ/L, the SODIUM [6] was 146.17 MEQ/L and the “TOTAL BILIRUBIN” value [6] was 0.1 mg/dL. The “TOTAL PROTEIN” value [6] was 6.23 G/DL, the “URIC ACID” value [6] was 1 mg/dL and the “ABSOLUTE BASOPHIL” value [7] was 0 CELLS/uL. The “ABSOLUTE EOSINOPHIL” value [7] was 0 CELLS/uL, the “ABSOLUTE LYMPHOCYTE” value [7] was 13779.33 CELLS/uL and the “ABSOLUTE MONOCYTE” value [7] was 115 CELLS/uL. For the same substance, the “ABSOLUTE SEGMENTED NEUTROPHIL” value [7] was 2472.33 CELLS/uL, the BASOPHIL [7] was 0% and the EOSINOPHIL [7] was 0%. For the same substance, the “ERYTHROCYTE COUNT” value [7] was 6.39 x10E6/uL, the HEMATOCRIT [7] was 35.97% and the HEMOGLOBIN [7] was 13.47 G/DL. The “LEUKOCYTE COUNT” value [7] was 16.37 x10E3/uL, the LYMPHOCYTE [7] was 84.33% and the “MEAN CORPUSCULAR HEMOGLOBIN” value [7] was 21.13 pg. For the same substance, the “MEAN CORPUSCULAR HEMOGLOBIN CONCENTRATION” value [7] was 37.47 G/DL, the “MEAN CORPUSCULAR VOLUME” value [7] was 56.37 fL and the MONOCYTE [7] was 0.67%. For the same substance, the NEUTROPHIL [7] was 15%, the “NUCLEATED RED BLOOD CELLS” value [7] was 0 /100WBC and the “PLATELET COUNT” value [7] was 941 x10E3/uL. For the same substance, the “ALANINE AMINOTRANSFERASE” value [8] was 51 u/L, the “ALKALINE PHOSPHATASE” value [8] was 319.33 u/L and the “ASPARTATE AMINOTRANSFERASE” value [8] was 77.33 u/L. For the same substance, the “BLOOD UREA NITROGEN” value [8] was 14 mg/dL, the CHLORIDE [8] was 99.67 MEQ/L and the CHOLESTEROL [8] was 64.33 mg/dL. The “CREATINE PHOSPHOKINASE” value [8] was 271.33 u/L, the CREATININE [8] was 0.23 mg/dL and the GLUCOSE [8] was 175 mg/dL. The “LACTATE DEHYDROGENASE” value [8] was 113 u/L, the LIPASE [8] was 20.33 u/L and the PHOSPHORUS [8] was 12.13 mg/dL. For the same substance, the POTASSIUM [8] was 5.75 MEQ/L, the “TOTAL BILIRUBIN” value [8] was 0.13 mg/dL and the “TOTAL PROTEIN” value [8] was 6.1 G/DL. For the same substance, the “URIC ACID” value [8] was 1.3 mg/dL.
